Structures can show the parent of a compound that is named as a salt. Some results are limits rather than exact numbers.

What all share (test): PI3K enzyme inhibitory activity in the cell free assay (ADP-Glo Kinase Assay)
Type in all cases: biochemical
(In general: In ADP-Glo the light output rises with the ADP produced.)

The target in one experiment is T1, PI3Kβ (Homo sapiens, UniProt P42338).
T1 construct: purchased Millipore Ltd (Billerica, Mass.)
The note with it: human recombinant PI3Kβ, ATP 100 μM; read-out: PI3K beta inhibition.

The next experiment deals with T2, PI3Kδ (Homo sapiens, UniProt O00329).
T2 construct: purchased Millipore Ltd (Billerica, Mass.)
T2 sequence (O00329 1-1044): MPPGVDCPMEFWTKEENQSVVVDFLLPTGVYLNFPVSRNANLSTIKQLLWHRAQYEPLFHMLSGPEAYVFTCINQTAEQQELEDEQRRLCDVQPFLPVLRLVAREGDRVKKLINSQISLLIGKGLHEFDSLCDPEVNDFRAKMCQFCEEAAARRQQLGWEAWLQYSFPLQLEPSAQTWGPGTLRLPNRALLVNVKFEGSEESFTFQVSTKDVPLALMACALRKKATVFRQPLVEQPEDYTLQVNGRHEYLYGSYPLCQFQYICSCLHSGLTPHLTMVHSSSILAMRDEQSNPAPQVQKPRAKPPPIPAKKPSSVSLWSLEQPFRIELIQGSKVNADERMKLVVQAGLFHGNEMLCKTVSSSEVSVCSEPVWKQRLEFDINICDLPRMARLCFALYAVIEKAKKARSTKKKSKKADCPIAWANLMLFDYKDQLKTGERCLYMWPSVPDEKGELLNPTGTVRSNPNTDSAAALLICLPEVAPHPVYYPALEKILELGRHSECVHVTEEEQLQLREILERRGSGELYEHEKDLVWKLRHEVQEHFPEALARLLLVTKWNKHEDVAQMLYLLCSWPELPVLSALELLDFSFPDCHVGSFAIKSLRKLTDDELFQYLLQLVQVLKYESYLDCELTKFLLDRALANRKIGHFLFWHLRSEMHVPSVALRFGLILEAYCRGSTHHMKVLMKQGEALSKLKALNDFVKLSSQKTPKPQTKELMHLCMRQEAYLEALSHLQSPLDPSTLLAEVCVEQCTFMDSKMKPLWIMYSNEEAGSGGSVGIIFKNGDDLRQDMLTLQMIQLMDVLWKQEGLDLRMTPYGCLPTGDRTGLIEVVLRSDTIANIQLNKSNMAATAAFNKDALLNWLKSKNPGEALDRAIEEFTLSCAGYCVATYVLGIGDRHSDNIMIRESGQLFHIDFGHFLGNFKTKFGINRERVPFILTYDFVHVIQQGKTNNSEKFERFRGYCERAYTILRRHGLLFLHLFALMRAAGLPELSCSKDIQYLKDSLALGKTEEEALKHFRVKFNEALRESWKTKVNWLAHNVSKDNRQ
The note with it: human recombinant PI3Kδ, ATP 80 μM; read-out: PI3K delta inhibition.

The target in the next experiment is T3, PI3Kγ (Homo sapiens, UniProt P48736).
T3 construct: purchased Millipore Ltd (Billerica, Mass.)
As to conditions: human recombinant PI3Kγ, ATP 30 μM; read-out: PI3K gamma inhibition.

T1 sequence (P42338 whole entry): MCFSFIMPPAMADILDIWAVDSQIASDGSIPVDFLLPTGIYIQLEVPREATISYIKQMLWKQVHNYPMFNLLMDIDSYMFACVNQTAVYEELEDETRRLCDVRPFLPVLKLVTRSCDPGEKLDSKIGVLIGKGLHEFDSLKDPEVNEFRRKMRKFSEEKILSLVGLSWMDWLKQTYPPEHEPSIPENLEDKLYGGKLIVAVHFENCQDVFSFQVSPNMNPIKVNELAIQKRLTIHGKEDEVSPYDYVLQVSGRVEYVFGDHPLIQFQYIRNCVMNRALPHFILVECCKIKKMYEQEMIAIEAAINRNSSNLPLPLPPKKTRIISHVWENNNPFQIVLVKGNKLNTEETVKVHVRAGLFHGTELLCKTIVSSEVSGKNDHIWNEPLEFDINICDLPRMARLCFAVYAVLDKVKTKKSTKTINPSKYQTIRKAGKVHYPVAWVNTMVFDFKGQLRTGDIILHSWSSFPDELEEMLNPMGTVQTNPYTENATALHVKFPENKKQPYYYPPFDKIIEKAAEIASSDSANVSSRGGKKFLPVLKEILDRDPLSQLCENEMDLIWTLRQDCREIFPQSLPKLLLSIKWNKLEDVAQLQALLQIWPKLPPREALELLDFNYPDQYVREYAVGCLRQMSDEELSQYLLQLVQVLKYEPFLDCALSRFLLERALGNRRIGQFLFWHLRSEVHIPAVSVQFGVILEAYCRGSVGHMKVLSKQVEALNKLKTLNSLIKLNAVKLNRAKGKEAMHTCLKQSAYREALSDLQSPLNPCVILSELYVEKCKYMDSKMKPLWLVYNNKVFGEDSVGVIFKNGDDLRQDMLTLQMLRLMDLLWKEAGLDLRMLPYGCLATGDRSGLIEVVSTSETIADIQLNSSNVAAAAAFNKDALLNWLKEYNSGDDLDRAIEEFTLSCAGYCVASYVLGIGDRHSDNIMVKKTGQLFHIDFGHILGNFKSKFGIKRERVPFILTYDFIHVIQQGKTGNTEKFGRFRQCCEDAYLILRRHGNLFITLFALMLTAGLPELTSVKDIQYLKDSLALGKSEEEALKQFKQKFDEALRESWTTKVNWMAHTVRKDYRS
T3 sequence (P48736 whole entry): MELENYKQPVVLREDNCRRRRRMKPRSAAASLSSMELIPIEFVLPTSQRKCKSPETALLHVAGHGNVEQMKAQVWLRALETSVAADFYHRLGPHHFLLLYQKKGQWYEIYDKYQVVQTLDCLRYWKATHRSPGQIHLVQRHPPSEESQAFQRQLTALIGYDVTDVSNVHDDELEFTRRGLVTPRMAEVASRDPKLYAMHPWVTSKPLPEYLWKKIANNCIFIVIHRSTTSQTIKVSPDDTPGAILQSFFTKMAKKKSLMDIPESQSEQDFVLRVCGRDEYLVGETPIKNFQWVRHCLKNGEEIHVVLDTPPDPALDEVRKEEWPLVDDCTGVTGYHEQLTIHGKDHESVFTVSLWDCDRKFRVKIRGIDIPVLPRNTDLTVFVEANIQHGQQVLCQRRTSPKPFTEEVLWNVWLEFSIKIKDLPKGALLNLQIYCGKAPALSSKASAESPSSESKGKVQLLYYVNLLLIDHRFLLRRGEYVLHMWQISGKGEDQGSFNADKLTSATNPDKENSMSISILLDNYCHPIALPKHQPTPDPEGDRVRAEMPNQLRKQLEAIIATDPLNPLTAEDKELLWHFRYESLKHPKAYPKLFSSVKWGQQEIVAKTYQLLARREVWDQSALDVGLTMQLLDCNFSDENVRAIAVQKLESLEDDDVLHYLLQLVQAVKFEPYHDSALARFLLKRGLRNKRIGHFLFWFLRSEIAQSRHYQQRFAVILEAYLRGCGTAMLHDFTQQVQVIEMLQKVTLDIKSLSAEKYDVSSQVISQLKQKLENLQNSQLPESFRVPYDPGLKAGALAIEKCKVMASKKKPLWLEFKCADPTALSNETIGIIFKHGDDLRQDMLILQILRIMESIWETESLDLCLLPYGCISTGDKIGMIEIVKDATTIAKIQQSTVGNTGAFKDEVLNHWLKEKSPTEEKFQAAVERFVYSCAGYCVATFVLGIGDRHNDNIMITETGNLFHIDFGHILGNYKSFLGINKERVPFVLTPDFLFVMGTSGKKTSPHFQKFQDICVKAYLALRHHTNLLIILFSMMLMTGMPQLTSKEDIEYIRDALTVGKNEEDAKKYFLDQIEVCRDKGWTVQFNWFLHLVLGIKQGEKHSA

On to “4-(1-acetyl-1,2,3,6-tetrahydropyridin-4-yl)-3-(1-(4-amino-3-(3-fluoro-5-hydroxyphenyl)-1H-pyrazolo[3,4-d]pyrimidin-1-yl)ethyl)-1H-isochromen-1-one single enantiomer [Example 166b]”, for which the IC50 at PI3Kβ lay in the range of 10 to 1000 nM.

Consider `CC(c1oc(=O)c2ccccc2c1-c1ccc(CN2CCOCC2)s1)n1nc(-c2cc(O)cc(F)c2)c2c(N)ncnc21` (single isomer, unassigned) [Example 49b, 3-(1-(4-amino-3-(3-fluoro-5-hydroxyphenyl)-1H-pyrazolo[3,4-d]pyrimidin-1-yl)ethyl)-4-(5-(morpholinomethyl)thiophen-2-yl)-1H-isochromen-1-one hydrochloride], for which the IC50 is 10 to 1000 nM at PI3Kδ, more than 1000 nM on PI3Kβ and more than 1000 nM at PI3Kγ.

In the case of `CC(c1oc(=O)c2ccccc2c1-c1cccc(CCCN(C)C)c1)n1nc(-c2cc(O)cc(F)c2)c2c(N)ncnc21` (single isomer, unassigned) [Example 137a, 3-(1-(4-amino-3-(3-fluoro-5-hydroxyphenyl)-1H-pyrazolo[3,4-d]pyrimidin-1-yl)ethyl)-4-(3-(3-(dimethylamino)propyl)phenyl)-1H-isochromen-1-one single enantiomers], the IC50 on PI3Kδ was 10 to 1000 nM; at PI3Kβ, more than 1000 nM.

With `Nc1ncnc2c1ncn2Cc1oc(=O)c2ccccc2c1-c1ccccc1` [Example 1, 3-((6-Amino-9H-1-purin-9-yl)methyl)-4-phenyl-1H-isochromen-1-one], the figures for the IC50 at PI3Kδ, at PI3Kβ and on PI3Kγ were 10 to 1000 nM, more than 1000 nM and 10 to 1000 nM, respectively.

Take `Nc1ncnc2c1ncn2Cc1oc(=O)c2ccccc2c1-c1cccc(F)c1` [Example 2, 3-((6-Amino-9H-purin-9-yl)methyl)-4-(3-fluorophenyl)-1H-isochromen-1-one]: the IC50 is 10 to 1000 nM at PI3Kδ, more than 1000 nM on PI3Kβ and more than 1000 nM at PI3Kγ.

In the case of `Nc1ncnc2c1ncn2Cc1oc(=O)c2ccccc2c1-c1ccccc1F` [Example 3, 3-((6-Amino-9H-purin-9-yl)methyl)-4-(2-fluorophenyl)-1H-isochromen-1-one], the IC50 at PI3Kδ was 10 to 1000 nM; at PI3Kβ, more than 1000 nM; at PI3Kγ, more than 1000 nM.

Consider `Cc1cccc(-c2c(Cn3cnc4c(N)ncnc43)oc(=O)c3ccccc23)c1` [Example 4, 3-((6-Amino-9H-purin-9-yl)methyl)-4-m-tolyl-1H-isochromen-1-one], for which the IC50 is 10 to 1000 nM on PI3Kδ, more than 1000 nM at PI3Kβ and more than 1000 nM at PI3Kγ.

On to `CC(c1oc(=O)c2ccccc2c1-c1cncs1)n1ncc2c(N)ncnc21` (centres unmarked) [Example 18, 3-(1-(4-Amino-1H-pyrazolo[3,4-d]pyrimidin-1-yl)ethyl)-4-(thiazol-5-yl)-1H-isochromen-1-one], for which the IC50 on PI3Kδ is 10 to 1000 nM; on PI3Kβ it was 10 to 1000 nM; at PI3Kγ it was more than 1000 nM.

For the molecule `CCC(Nc1ncnc2[nH]cnc12)c1oc(=O)c2ccccc2c1-c1ccccc1` (centres unmarked) [Example 25, 3-(1-(9H-Purin-6-ylamino)propyl)-4-phenyl-1H-isochromen-1-one], the IC50 was less than 10 nM on PI3Kδ, more than 1000 nM at PI3Kβ and 10 to 1000 nM at PI3Kγ.

For the molecule `CC(Nc1ncnc2[nH]cnc12)c1oc(=O)c2ccccc2c1-c1ccc(CN2CCOCC2)s1` (centres unmarked) [Example 28, 3-(1-(9H-Purin-6-ylamino)ethyl)-4-(5-(morpholinomethyl)thiophen-2-yl)-1H-isochromen-1-one], the IC50 at PI3Kδ is less than 10 nM; at PI3Kβ, more than 1000 nM; on PI3Kγ, 10 to 1000 nM.

For the molecule `O=c1oc(CNc2ncnc3[nH]cnc23)c(-c2ccccc2F)c2ccccc12` [Example 30, 3-((9H-Purin-6-ylamino)methyl)-4-(2-fluorophenyl)-1H-isochromen-1-one], the IC50 is 10 to 1000 nM on PI3Kδ, more than 1000 nM at PI3Kβ and 10 to 1000 nM on PI3Kγ.

For the molecule `CC(Nc1ncnc2[nH]cnc12)c1oc(=O)c2ccccc2c1-c1cccc(N(C)C)c1` (centres unmarked) [Example 34, 3-(1-(9H-Purin-6-ylamino)ethyl)-4-(3-(dimethylamino)phenyl)-1H-isochromen-1-one], the IC50 at PI3Kδ is 10 to 1000 nM; on PI3Kβ, more than 1000 nM; on PI3Kγ, 10 to 1000 nM.

On to `Nc1ncnc2c1c(-c1cc(O)cc(F)c1)nn2Cc1oc(=O)c2ccccc2c1-c1ccccc1` [Example 35, 3-((4-Amino-3-(3-fluoro-5-hydroxyphenyl)-1H-pyrazolo[3,4-d]pyrimidin-1-yl)methyl)-4-phenyl-1H-isochromen-1-one], for which the IC50 at PI3Kδ was less than 10 nM; on PI3Kβ it was more than 1000 nM; on PI3Kγ, 10 to 1000 nM.

For the molecule `Nc1ncnc2c1c(-c1ccc3[nH]ncc3c1)nn2Cc1oc(=O)c2ccccc2c1-c1ccccc1` [Example 36, 3-((4-Amino-3-(1H-indazol-5-yl)-1H-pyrazolo[3,4-d]pyrimidin-1-yl)methyl)-4-phenyl-1H-isochromen-1-one], the IC50 was 10 to 1000 nM at PI3Kδ, more than 1000 nM on PI3Kβ and 10 to 1000 nM at PI3Kγ.

Turning to `Nc1ncnc2c1c(-c1ccc3cn[nH]c3c1)nn2Cc1oc(=O)c2ccccc2c1-c1ccccc1` [Example 38, 3-((4-Amino-3-(1H-indazol-6-yl)-1H-pyrazolo[3,4-d]pyrimidin-1-yl)methyl)-4-phenyl-1H-isochromen-1-one], the IC50 on PI3Kδ was 10 to 1000 nM; at PI3Kβ it was more than 1000 nM; at PI3Kγ it was 10 to 1000 nM.

As for `Nc1ncnc2c1c(-c1ccc(O)c(F)c1)nn2Cc1oc(=O)c2ccccc2c1-c1ccccc1` [Example 39, 3-((4-Amino-3-(3-fluoro-4-hydroxyphenyl)-1H-pyrazolo[3,4-d]pyrimidin-1-yl)methyl)-4-phenyl-1H-isochromen-1-one], the IC50 at PI3Kδ was 10 to 1000 nM; at PI3Kβ, more than 1000 nM; at PI3Kγ, 10 to 1000 nM.

`CC(c1oc(=O)c2ccccc2c1-c1ccc(CN2CCCC2)s1)n1nc(-c2cc(O)cc(F)c2)c2c(N)ncnc21` (centres unmarked) [Example 73, 3-(1-(4-amino-3-(3-fluoro-5-hydroxyphenyl)-1H-pyrazolo[3,4-d]pyrimidin-1-yl)ethyl)-4-(5-(pyrrolidin-1-ylmethyl)thiophen-2-yl)-1H-isochromen-1-one hydrochloride]: the IC50 at PI3Kδ is less than 10 nM; on PI3Kβ it was 10 to 1000 nM; on PI3Kγ, more than 1000 nM.

For the molecule `CC(c1oc(=O)c2ccccc2c1-c1ccc(C(=O)O)s1)n1nc(-c2cc(O)cc(F)c2)c2c(N)ncnc21` (centres unmarked) [Example 78, 5-(3-(1-(4-amino-3-(3-fluoro-5-hydroxyphenyl)-1H-pyrazolo[3,4-d]pyrimidin-1-yl)ethyl)-1-oxo-1H-isochromen-4-yl)thiophene-2-carboxylic acid], the figures for the IC50 on PI3Kδ, on PI3Kβ and at PI3Kγ were less than 10 nM, more than 1000 nM and 10 to 1000 nM, respectively.

In the case of `CC(c1oc(=O)c2ccccc2c1-c1ccccc1)n1nc(-c2ccc(S(C)(=O)=O)nc2)c2c(N)ncnc21` (centres unmarked) [Example 97, 3-(1-(4-amino-3-(6-(methylsulfonyl)pyridin-3-yl)-1H-pyrazolo[3,4-d]pyrimidin-1-yl)ethyl)-4-phenyl-1H-isochromen-1-one], the IC50 is less than 10 nM on PI3Kδ and more than 1000 nM on PI3Kγ.

Turning to `CC(Nc1ncnc2ccsc12)c1oc(=O)c2ccccc2c1-c1ccccc1` (centres unmarked) [Example 109, 4-phenyl-3-(1-(thieno[3,2-d]pyrimidin-4-ylamino)ethyl)-1H-isochromen-1-one], the IC50 on PI3Kδ and at PI3Kγ was 10 to 1000 nM each time.

Consider `CC(Nc1ncnc2[nH]cnc12)c1oc(=O)c2ccccc2c1-c1ccc(CN2CCNCC2)cc1` (centres unmarked) [Example 126, 3-(1-(9H-purin-6-ylamino)ethyl)-4-(4-(piperazin-1-ylmethyl)phenyl)-1H-isochromen-1-one dihydrochloride], for which the IC50 on PI3Kδ and on PI3Kγ was 10 to 1000 nM throughout.

Consider `CC(c1oc(=O)c2cc(Cl)ccc2c1-c1ccccc1)n1nc(-c2cc(O)cc(F)c2)c2c(N)ncnc21` (centres unmarked) [Example 163, 3-(1-(4-amino-3-(3-fluoro-5-hydroxyphenyl)-1H-pyrazolo[3,4-d]pyrimidin-1-yl)ethyl)-7-chloro-4-phenyl-1H-isochromen-1-one], for which the IC50 is 10 to 1000 nM at PI3Kδ and more than 1000 nM at PI3Kγ.

The values above are taken from patent US9321776B2, “Isochromene derivatives as phoshoinositide 3-kinases inhibitors” (CHIESI FARMACEUTICI S.p.A., priority 2013, dated 2016).
